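GI50 is the concentration that inhibits growth by half. TGI: concentration producing complete growth inhibition.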
Key:
Assay in all cases: DTP human tumour cell line panel, 384-well format
NCI-H522 lung = tested on: NCI-H522 lung
NCI/ADR-RES ovarian = tested on: NCI/ADR-RES ovarian
OVCAR-4 ovarian = tested on: OVCAR-4 ovarian
OVCAR-5 ovarian = tested on: OVCAR-5 ovarian
OVCAR-8 ovarian = tested on: OVCAR-8 ovarian
PC-3 prostate = tested on: PC-3 prostate
RPMI-8226 leukemia = tested on: RPMI-8226 leukemia
RXF 393 renal = tested on: RXF 393 renal
SF-268 CNS = tested on: SF-268 CNS
SF-295 CNS = tested on: SF-295 CNS
SF-539 CNS = tested on: SF-539 CNS
SK-MEL-2 melanoma = tested on: SK-MEL-2 melanoma
SK-MEL-28 melanoma = tested on: SK-MEL-28 melanoma
SK-OV-3 ovarian = tested on: SK-OV-3 ovarian
SN12C renal = tested on: SN12C renal
SNB-19 CNS = tested on: SNB-19 CNS
SNB-75 CNS = tested on: SNB-75 CNS
SR leukemia = tested on: SR leukemia
SW-620 colon = tested on: SW-620 colon
T-47D breast = tested on: T-47D breast
TK-10 renal = tested on: TK-10 renal
U251 glioblastoma = tested on: U251 glioblastoma
UACC-62 melanoma = tested on: UACC-62 melanoma
UO-31 renal = tested on: UO-31 renal

CC(C)(C)C[C@H]1N[C@@H](C(=O)NC2CCC(O)CC2)[C@H](c2cccc(Cl)c2F)[C@@]12C(=O)Nc1cc(Cl)ccc12 (some centres not stated)
TGI (NCI-H522 lung): 10.1 µM | GI50 (NCI/ADR-RES ovarian): 17.5 µM | TGI (NCI/ADR-RES ovarian): 31.4 µM | GI50 (OVCAR-4 ovarian): 7.25 µM | TGI (OVCAR-4 ovarian): 20.3 µM | GI50 (OVCAR-5 ovarian): 13.6 µM | TGI (OVCAR-5 ovarian): 26.5 µM | GI50 (OVCAR-8 ovarian): 12.5 µM | TGI (OVCAR-8 ovarian): 25.1 µM | GI50 (PC-3 prostate): 7.04 µM | TGI (PC-3 prostate): 18.7 µM | GI50 (RPMI-8226 leukemia): 2.35 µM | TGI (RPMI-8226 leukemia): 4.06 µM | GI50 (RXF 393 renal): 2.38 µM | TGI (RXF 393 renal): 8.18 µM | GI50 (SF-268 CNS): 13.6 µM | TGI (SF-268 CNS): 26.5 µM | GI50 (SF-295 CNS): 7.09 µM | TGI (SF-295 CNS): 19.8 µM | GI50 (SF-539 CNS): 8.76 µM | TGI (SF-539 CNS): 22.3 µM | GI50 (SK-MEL-2 melanoma): 4.41 µM | TGI (SK-MEL-2 melanoma): 14.6 µM | GI50 (SK-MEL-28 melanoma): 7.87 µM | TGI (SK-MEL-28 melanoma): 20.5 µM | GI50 (SK-OV-3 ovarian): 14.6 µM | TGI (SK-OV-3 ovarian): 27.9 µM | GI50 (SN12C renal): 14 µM | TGI (SN12C renal): 27.2 µM | GI50 (SNB-19 CNS): 14.1 µM | TGI (SNB-19 CNS): 27.2 µM | GI50 (SNB-75 CNS): 6.62 µM | TGI (SNB-75 CNS): 19.2 µM | GI50 (SR leukemia): 0.0271 µM | TGI (SR leukemia): 0.0996 µM | GI50 (SW-620 colon): 14.7 µM | TGI (SW-620 colon): 28 µM | GI50 (T-47D breast): 8.29 µM | TGI (T-47D breast): 20.8 µM | GI50 (TK-10 renal): 8.04 µM | TGI (TK-10 renal): 20.8 µM | GI50 (U251 glioblastoma): 12.2 µM | TGI (U251 glioblastoma): 24.7 µM | GI50 (UACC-62 melanoma): 0.1 µM | TGI (UACC-62 melanoma): 1.86 µM | GI50 (UO-31 renal): 0.461 µM | TGI (UO-31 renal): 2.52 µM
